Test results from ChEMBL document CHEMBL1177695, “Discovery and development of natural product-derived chemotherapeutic agents based on a medicinal chemistry approach” (J Nat Prod, 2010).
≈ marks a conversion by molar mass, not a printed value. Values belong to the compound of their own block, whether it stands above or below them.

Assays:
MCF7 [1] = test: Cytotoxicity against human MCF7 cells after 72 hrs by sulforhodamine B assay; assay type: functional; settings: MCF7, 72 h, read-out: ED50 (the source's name)
SK-BR-3 [2] = test: Cytotoxicity against human SK-BR-3 cells after 72 hrs by sulforhodamine B assay; assay type: functional; settings: SK-BR-3, 72 h, read-out: ED50 (the source's name)
ZR-75-1 [3] = test: Cytotoxicity against human ZR-75-1 cells after 72 hrs by sulforhodamine B assay; assay type: functional; settings: ZR-75-1, 72 h, read-out: ED50 (the source's name)
MDA-MB-231 = test: Cytotoxicity against human MDA-MB-231 cells after 72 hrs by sulforhodamine B assay; assay type: functional; settings: MDA-MB-231, 72 h, read-out: ED50 (the source's name)
A549 = test: Cytotoxicity against human A549 cells; assay type: functional, cell-based; settings: Homo sapiens, A549
[4] = Inhibition of tubulin polymerization
KB [5] = test: Cytotoxicity against human KB cells; assay type: functional, cell-based
[6] = Cytotoxicity against human KB-7d cells expressing multidrug-resistant protein; assay type: functional, cell-based; settings: KB7D
[7] = Cytotoxicity against vincristine-resistant human KB/VCR cells overexpressing P-glycoprotein; assay type: functional, cell-based
KB [8] = test: Cytotoxicity against CPT-resistant human KB cells […] reduced level of topoisomerase; assay type: functional, cell-based
H9 = test: Cytotoxicity against human H9 cells after 4 days by coulter counter; assay type: cell-based; settings: Homo sapiens, H9, 96 h
[9] = tested on: Human immunodeficiency virus 1; test: Antiviral activity against HIV1 3B infected in H9 cells assessed as inhibition of viral replication by p24 antigen ELISA; assay type: functional, organism-based; settings: Human immunodeficiency virus 1, 3B, H9; read-out: EC50
[10] = Therapeutic index, ratio of IC50 for human H9 cells to EC50 for HIV 3B; assay type: cell-based; settings: read-out: TI
[11] = tested on: Human immunodeficiency virus 1; test: Antiviral activity against multidrug-resistant HIV1 RTMDR1 infected in H9 cells assessed as inhibition of viral replication by p24 antigen ELISA; assay type: functional, organism-based; settings: Human immunodeficiency virus 1, RTMDR1, H9
[12] = Therapeutic index, ratio of IC50 for human H9 cells to EC50 for multidrug-resistant HIV1 RTMDR1; assay type: cell-based; settings: read-out: TI
[13] = tested on: Human immunodeficiency virus 1; test: Antiviral activity against HIV1 infected in human H9 cells after 4 days by p24 antigen ELISA; assay type: functional, organism-based; settings: Human immunodeficiency virus 1, H9, 96 h
[14] = Therapeutic index, ratio of IC50 for human H9 cells to EC50 for HIV1; assay type: cell-based; settings: read-out: TI
[15] = tested on: Human immunodeficiency virus 1; test: Anti-HIV-1 activity in human H9 cells; settings: H9, 96 h
OVCAR-3 = test: Antitumor activity against human OVCAR-3 cells xenografted in mouse assessed as increase in mouse life span; assay type: functional, cell-based
Tubulin = test: Inhibition of tubulin polymerization
MCF7 [16] = test: Cytotoxicity against human MCF7 cells; assay type: functional; settings: read-out: ED50 (the source's name)
ZR-75-1 [17] = test: Cytotoxicity against human ZR-75-1 cells; assay type: functional; settings: read-out: ED50 (the source's name)
SK-BR-3 [18] = test: Cytotoxicity against human SK-BR-3 cells overexpressing HER2; assay type: functional; settings: read-out: ED50 (the source's name)
[19] = Antitumor activity against rat Walker 256 cells allografted in rat at 2.5 mg/kg relative to control; assay type: functional
P388 = test: Antitumor activity against mouse P388 cells allografted in mouse at 8 mg/kg relative to control; assay type: functional
[20] = Cytotoxicity against human KBVIN cells after 3 days by sulforhodamine B assay; assay type: functional, cell-based; settings: 72 h
KB [21] = test: Selectivity ratio of EC50 for human KB cells to EC50 for vincristine-resistant human KB cells; assay type: functional
Hep-2 (human) = test: Cytotoxicity against human Hep-2 cells; settings: read-out: ED50 (the source's name)

SMILES: CCCc1cccc2c1ccc1c3occ(C)c3c(=O)oc21
EC50 (MCF7 [1]): 1.2 µg/mL (≈ 4.1 µM) | EC50 (SK-BR-3 [2]): 0.1 µg/mL (≈ 0.342 µM) | EC50 (ZR-75-1 [3]): 0.3 µg/mL (≈ 1.03 µM) | EC50 (MDA-MB-231): > 10 µg/mL

SMILES: COc1ccc2c(CNCCCCCCO)cc3cc4c(cc3c2c1)OCO4
IC50 (A549): 130 nM

IC50 [4]: 2000 nM
SMILES: COc1ccc2c(c1)C(O)CCc1cc(OC)c(OC)c(OC)c1-2 (stereo not given)
EC50 (KB [5]): 0.02 µg/mL (≈ 0.0605 µM) | EC50 [6]: 0.013 µg/mL (≈ 0.0393 µM) | EC50 [7]: 0.013 µg/mL (≈ 0.0393 µM) | EC50 (KB [8]): 0.022 µg/mL (≈ 0.0666 µM)

SMILES: CCCc1cc(=O)c2ccc3c(c2o1)[C@@H](OC(=O)C12CCC(C)(C(=O)O1)C2(C)C)[C@@H](OC(=O)C12CCC(C)(C(=O)O1)C2(C)C)C(C)(C)O3 (stereo not given in full)
IC50 (H9): > 37700 nM | EC50 [9]: 20 nM | selectivity ratio [10]: 1860 | EC50 [11]: 140 nM | selectivity ratio [12]: > 272

IC50 [13]: 12800 nM | EC50 [15]: 44 nM
SMILES: C=C(C)[C@@H]1CC[C@]2(C(=O)O)CC[C@]3(C)[C@H](CC[C@@H]4[C@@]5(C)CC[C@H](OC(=O)CCCC(=O)O)C(C)(C)[C@@H]5CC[C@]43C)[C@@H]12
selectivity ratio [14]: 292

SMILES: O=c1cc(-c2ccccc2F)[nH]c2cc3c(cc12)OCO3
IC50 [4]: 850 nM | Activity (OVCAR-3): 130%

SMILES: CCc1cc(=O)c2ccc3c(c2o1)[C@@H](OC(=O)C12CCC(C)(C(=O)O1)C2(C)C)[C@@H](OC(=O)C12CCC(C)(C(=O)O1)C2(C)C)C(C)(C)O3 (stereo not given in full)
IC50 (H9): 37200 nM | selectivity ratio [10]: 116000 | EC50 [11]: 60 nM | selectivity ratio [12]: 718

IC50 (Tubulin): 630 nM
SMILES: Cc1cnc2[nH]c(-c3cccc(F)c3)cc(=O)c2c1

SMILES: CCc1cccc2c1ccc1c3occ(C)c3c(=O)oc21
EC50 (MCF7 [16]): 0.45 µg/mL (≈ 1.62 µM) | EC50 (ZR-75-1 [17]): 0.18 µg/mL (≈ 0.647 µM) | EC50 (SK-BR-3 [18]): 0.1 µg/mL (≈ 0.359 µM)

SMILES: C=C1C(=O)O[C@@H]2C[C@@H](C)[C@@H]3[C@@H]4CC(=O)[C@@]3(C[C@H]12)[C@@]1(C4)C(=O)O[C@@H]2C[C@@H](C)[C@@H]3C=CC(=O)[C@@]3(C)[C@@H](O)[C@@H]21 [MICROLENIN]
T/C [19]: 173%

IC50 [13]: 16000 nM | EC50 [15]: 4000 nM
SMILES: C=C(C)[C@@H]1CC[C@]2(C(=O)O)CC[C@]3(C)[C@H](CC[C@@H]4[C@@]5(C)CC[C@H](OC(=O)CCC(=O)O)C(C)(C)[C@@H]5CC[C@]43C)[C@@H]12
selectivity ratio [14]: 4

SMILES: C=C1C(=O)O[C@@H]2C[C@@H](C)[C@H]3C=CC(=O)[C@@]3(C)[C@@H](OC(=O)CCCC(=O)O[C@H]3[C@H]4C(=C)C(=O)O[C@@H]4C[C@H](C)[C@H]4C=CC(=O)[C@]43C)[C@@H]12
T/C (P388): 195%

SMILES: CCOCc1cc(=O)c2ccc3c(c2o1)[C@@H](OC(=O)C12CCC(C)(C(=O)O1)C2(C)C)[C@@H](OC(=O)C12CCC(C)(C(=O)O1)C2(C)C)C(C)(C)O3 (stereo not given in full)
IC50 (H9): 12500 nM | EC50 [9]: 100 nM | selectivity ratio [10]: 151 | EC50 [11]: 370 nM | selectivity ratio [12]: 34

IC50 (Tubulin): 750 nM
SMILES: COc1cccc(-c2cc(=O)c3ccc(C)nc3[nH]2)c1

SMILES: C=C1C(=O)O[C@H]2[C@H]1[C@@H](OC(=O)/C(C)=C/C)C/C(C)=C/C(=O)/C=C(/C)[C@@H]2O [MOLEPHANTININ]
T/C [19]: 397%

SMILES: CC(C)c1cc(=O)c2ccc3c(c2o1)[C@@H](OC(=O)C12CCC(C)(C(=O)O1)C2(C)C)[C@@H](OC(=O)C12CCC(C)(C(=O)O1)C2(C)C)C(C)(C)O3 (stereo not given in full)
IC50 (H9): 15000 nM | EC50 [9]: 70 nM | selectivity ratio [10]: 483 | EC50 [11]: 140 nM | selectivity ratio [12]: > 111

EC50 [15]: 0.35 nM
SMILES: C=C(C)[C@@H]1CC[C@]2(C(=O)O)CC[C@]3(C)[C@H](CC[C@@H]4[C@@]5(C)CC[C@H](OC(=O)CC(C)(C)C(=O)O)C(C)(C)[C@@H]5CC[C@]43C)[C@@H]12 [BEVIRIMAT]
selectivity ratio [14]: 20000

SMILES: CCC1=C(O)c2c(oc(-c3ccc(C)cc3)cc2=O)C(CC)(CC)C1=O [6,8,8-TRIETHYL-4-METHYL DESMOSDUMOTIN B]
EC50 [20]: 0.03 µg/mL (≈ 0.0851 µM) | Ratio EC50 (KB [21]): >460

SMILES: C=C1C(=O)O[C@@H]2C[C@@H](C)[C@@H]3CCC(=O)[C@@]3(C)[C@@H](O)[C@H]12
EC50 (Hep-2 (human)): 3.84 µg/mL (≈ 14.5 µM)
